pIC50: −log10 of the molar value.
Assays:
TBK1 = biological target: T1, TBK1 (Homo sapiens, UniProt Q9UHD2); experiment: purified enzyme inhibition (pIC50; assay details not given); assay type: biochemical
T1 sequence (Q9UHD2 1-729): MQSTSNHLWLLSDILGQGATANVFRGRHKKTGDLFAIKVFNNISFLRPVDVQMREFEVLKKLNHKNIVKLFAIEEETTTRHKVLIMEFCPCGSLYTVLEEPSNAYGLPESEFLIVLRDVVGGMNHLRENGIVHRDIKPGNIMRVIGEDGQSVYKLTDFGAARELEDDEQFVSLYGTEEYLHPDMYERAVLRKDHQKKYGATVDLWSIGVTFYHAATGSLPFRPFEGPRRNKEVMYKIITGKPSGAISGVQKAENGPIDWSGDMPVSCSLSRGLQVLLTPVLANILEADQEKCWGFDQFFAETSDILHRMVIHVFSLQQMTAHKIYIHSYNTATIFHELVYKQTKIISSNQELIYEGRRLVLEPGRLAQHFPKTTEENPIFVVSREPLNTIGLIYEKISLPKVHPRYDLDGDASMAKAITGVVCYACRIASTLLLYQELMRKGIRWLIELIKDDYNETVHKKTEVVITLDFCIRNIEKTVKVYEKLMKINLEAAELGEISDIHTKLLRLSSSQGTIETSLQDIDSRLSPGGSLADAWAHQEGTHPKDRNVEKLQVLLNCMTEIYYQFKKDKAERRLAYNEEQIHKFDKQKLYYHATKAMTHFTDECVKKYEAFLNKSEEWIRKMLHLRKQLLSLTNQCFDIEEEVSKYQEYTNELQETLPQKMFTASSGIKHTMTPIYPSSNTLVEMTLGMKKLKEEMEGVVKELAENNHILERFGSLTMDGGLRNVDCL

IKKε = biological target: T2, IKKε (Homo sapiens, UniProt Q14164); experiment: as above; assay type: biochemical
T2 construct: gene IKBKE
T2 sequence (Q14164 1-716): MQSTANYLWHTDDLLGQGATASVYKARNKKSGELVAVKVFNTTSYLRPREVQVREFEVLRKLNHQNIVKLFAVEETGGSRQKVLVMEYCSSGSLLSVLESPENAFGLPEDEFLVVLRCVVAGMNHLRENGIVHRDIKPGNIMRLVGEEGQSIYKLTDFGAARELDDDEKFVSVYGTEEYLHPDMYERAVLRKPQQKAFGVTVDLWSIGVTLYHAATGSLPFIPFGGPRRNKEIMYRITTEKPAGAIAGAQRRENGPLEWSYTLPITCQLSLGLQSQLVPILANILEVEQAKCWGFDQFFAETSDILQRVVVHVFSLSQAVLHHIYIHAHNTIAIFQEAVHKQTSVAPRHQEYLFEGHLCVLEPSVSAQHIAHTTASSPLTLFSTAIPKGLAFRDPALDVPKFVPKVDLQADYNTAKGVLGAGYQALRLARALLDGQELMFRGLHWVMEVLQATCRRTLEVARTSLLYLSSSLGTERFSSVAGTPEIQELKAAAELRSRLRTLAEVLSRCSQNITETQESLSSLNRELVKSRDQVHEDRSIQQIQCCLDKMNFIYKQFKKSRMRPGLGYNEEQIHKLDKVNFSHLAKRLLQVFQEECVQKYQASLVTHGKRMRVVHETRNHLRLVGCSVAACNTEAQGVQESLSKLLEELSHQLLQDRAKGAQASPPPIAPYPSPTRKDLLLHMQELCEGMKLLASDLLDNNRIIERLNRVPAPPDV

- pIC50 (TBK1): 7.90
- pIC50 (IKKε): 7.80
Compound: N#Cc1cc(-c2ccnc(Nc3ccc(NC(=O)CN4CCOCC4)nc3)n2)cnc1N1CC[C@H](F)C1 [DMX3433]

Source: publication PMC7576278, “IKKε and TBK1 in diffuse large B‐cell lymphoma: A possible mechanism of action of an IKKε/TBK1 inhibitor to repress NF‐κB and IL‐10 signalling” (Journal of Cellular and Molecular Medicine, 2020)
